# Source: patent US11441138B2, “Method for selection of high M6P recombinant proteins” (Amicus Therapeutics, Inc., priority 2016, dated 2022)
# Where two headings read alike, the source gives them in different places.
# Experiments:
# ATB200 = ATB200 (Homo sapiens, UniProt P10253, H199R/R223H/V780I); assay: Stabilization of ATB200 by miglustat; details: neutral pH of plasma
# [1] = Phase 1/2 study: plasma miglustat pharmacokinetics; format: in vivo, human; details: for half-life / Vd/F / AUC(0-inf) / AUC(0-t) / Cmax / Tmax: both sexes, human, plasma, po; for half-life / Vd/F / AUC(0-inf) / AUC(0-t) / Cmax / Tmax / CL/F: plasma miglustat; for half-life / Vd/F / CL/F: arithmetic mean; for Vd/F: read-out: Vz/F; for AUC(0-inf) / AUC(0-t) / Cmax: geometric mean; for Tmax: median
# Method: (§1) Mean total GAA protein and miglustat PK results from the first 8 Cohort 1 patients through Visit 9 and the first 2 Cohort 3 patients were assessed.
# Gaa knockout mice [2] = assay: Glycogen reduction in Gaa knockout mice, two IV bolus administrations; format: in vivo, mouse
# Description: Animals were given two IV bolus administrations (every other week); tissues were harvested two weeks after the last dose and analyzed for acid α-glucosidase activity and glycogen content.
# CIMPR [3] = biological target: T1, CIMPR (Homo sapiens, UniProt P11717); assay: CIMPR plate binding assay
# Method: In addition to having a greater percentage of rhGAA that can bind to the CIMPR, it is important to understand the quality of that interaction. […] Briefly, CIMPR-coated plates were used to capture GAA. Varying concentrations of rhGAA were applied to the immobilized receptor and unbound rhGAA was washed off. The amount of remaining rhGAA was determined by GAA activity.
# Gaa knockout mice [4] = assay: Muscle physiology and morphology in Gaa-knockout mice; format: in vivo, mouse; details: rhGAA 20 mg/kg IV every other week; miglustat 10 mg/kg oral 30 mins prior; compared to alglucosidase alfa
# Method: Control mice were treated with vehicle alone. Soleus, quadriceps and diaphragm tissue is harvested two weeks after the last dose of recombinant human acid α-glucosidase. […] Semi-thin sections of quadriceps muscle embedded in epoxy resin (Epon) were stained with methylene blue and observed by […] (1000×) to determine the extent of the presence of vacuoles. […] Control mice were treated with vehicle alone. Cardiac muscle tissue was harvested two weeks after the last dose of recombinant human acid α-glucosidase and analyzed for glycogen levels, by staining with periodic acid-Schiff reagent (PAS), and for lysosome proliferation, by measuring levels of LAMP1.
# [5] = Phase 1/2 study: plasma total GAA protein pharmacokinetics; parameters: species or system human; details: in vivo
# GAA KO mice [6] = assay: Muscle function in Gaa-knockout mice, longer-term studies; format: in vivo, mouse
# [7] = Apparent plasma half-life in vivo
# [8] = system: adults with Pompe disease; assay: Phase 1/2 study: safety; format: in vivo, human; details: no infusion-associated reactions to date
# Method: as §1
# [9] = system: Pompe fibroblasts and skeletal muscle myoblasts; assay: Internalization by Pompe fibroblasts and skeletal muscle myoblasts; format: cell-based
# [10] = system: normal and Pompe fibroblast cell lines; assay: Cellular uptake of rhGAA by fibroblasts (16-hr incubation, 4MU-α-Glucoside hydrolysis); format: cell-based; details: for concentration that saturates cellular receptors: normal and Pompe fibroblasts, 16-hr incubation
# Method: The relative cellular uptake of ATB200 and Lumizyme® rhGAA were compared using normal and Pompe fibroblast cell lines. […] After 16-hr incubation, external rhGAA was inactivated with TRIS base and cells were washed 3-times with PBS prior to harvest. Internalized GAA measured by 4MU-α-Glucoside hydrolysis and was graphed relative to total cellular protein and the results appear in FIGS. 13A-13B.
# GAA KO mice [11] = assay: Glycogen clearance in GAA KO mice, 4 injections with or without miglustat (FIG. 15); format: in vivo, mouse; details: rhGAA 20 mg/kg IV every other week, miglustat 10 mg/kg PO 30 min prior where co-administered, 14 days after last dose
# Description: Tissues were collected 14 days after last enzyme dose for glycogen measurement.
# CIMPR [12] = biological target: T1, CIMPR; assay: CIMPR affinity chromatography of rhGAA (bound vs unbound GAA activity); format: binding; details: for CIMPR binding compared with ATB200 rhGAA: FIGS. 4A, 4B, 7A, 7B; for rhGAA bound to CIMPR / containing M6P (eluted with M6P) / rhGAA that did not bind to the CIMPR (GAA activity eluted prior to addition of M6P): fraction of total enzyme by GAA activity
# Method: To evaluate the ability of the rhGAA in Myozyme® and Lumizyme®, the only currently approved treatments for Pompe disease, these rhGAA preparations were injected onto a CIMPR column (which binds rhGAA having M6P groups) and subsequently eluted with a free […] gradient. Fractions were collected in 96-well plate and GAA activity assayed by 4MU-α-glucose substrate. The relative amounts of bound and unbound rhGAA were determined based on GAA activity and reported as the fraction of total enzyme.
# Multiple batches of the rhGAA according to the invention were produced in shake flasks and in perfusion bioreactors using CHO cell line GA-ATB-200 and CIMPR binding was measured.
# [13] = system: subjects with Pompe disease; details: cited from earlier work
# [14] = 130 mg, Low (about 130 mg oral) MD
# [15] = 130 mg, Low (about 130 mg oral) SD
# [16] = 260 mg, High (about 260 mg oral) MD
# [17] = 260 mg, High (about 260 mg oral) SD
# T1 sequence (P11717 41-2491, species assumed): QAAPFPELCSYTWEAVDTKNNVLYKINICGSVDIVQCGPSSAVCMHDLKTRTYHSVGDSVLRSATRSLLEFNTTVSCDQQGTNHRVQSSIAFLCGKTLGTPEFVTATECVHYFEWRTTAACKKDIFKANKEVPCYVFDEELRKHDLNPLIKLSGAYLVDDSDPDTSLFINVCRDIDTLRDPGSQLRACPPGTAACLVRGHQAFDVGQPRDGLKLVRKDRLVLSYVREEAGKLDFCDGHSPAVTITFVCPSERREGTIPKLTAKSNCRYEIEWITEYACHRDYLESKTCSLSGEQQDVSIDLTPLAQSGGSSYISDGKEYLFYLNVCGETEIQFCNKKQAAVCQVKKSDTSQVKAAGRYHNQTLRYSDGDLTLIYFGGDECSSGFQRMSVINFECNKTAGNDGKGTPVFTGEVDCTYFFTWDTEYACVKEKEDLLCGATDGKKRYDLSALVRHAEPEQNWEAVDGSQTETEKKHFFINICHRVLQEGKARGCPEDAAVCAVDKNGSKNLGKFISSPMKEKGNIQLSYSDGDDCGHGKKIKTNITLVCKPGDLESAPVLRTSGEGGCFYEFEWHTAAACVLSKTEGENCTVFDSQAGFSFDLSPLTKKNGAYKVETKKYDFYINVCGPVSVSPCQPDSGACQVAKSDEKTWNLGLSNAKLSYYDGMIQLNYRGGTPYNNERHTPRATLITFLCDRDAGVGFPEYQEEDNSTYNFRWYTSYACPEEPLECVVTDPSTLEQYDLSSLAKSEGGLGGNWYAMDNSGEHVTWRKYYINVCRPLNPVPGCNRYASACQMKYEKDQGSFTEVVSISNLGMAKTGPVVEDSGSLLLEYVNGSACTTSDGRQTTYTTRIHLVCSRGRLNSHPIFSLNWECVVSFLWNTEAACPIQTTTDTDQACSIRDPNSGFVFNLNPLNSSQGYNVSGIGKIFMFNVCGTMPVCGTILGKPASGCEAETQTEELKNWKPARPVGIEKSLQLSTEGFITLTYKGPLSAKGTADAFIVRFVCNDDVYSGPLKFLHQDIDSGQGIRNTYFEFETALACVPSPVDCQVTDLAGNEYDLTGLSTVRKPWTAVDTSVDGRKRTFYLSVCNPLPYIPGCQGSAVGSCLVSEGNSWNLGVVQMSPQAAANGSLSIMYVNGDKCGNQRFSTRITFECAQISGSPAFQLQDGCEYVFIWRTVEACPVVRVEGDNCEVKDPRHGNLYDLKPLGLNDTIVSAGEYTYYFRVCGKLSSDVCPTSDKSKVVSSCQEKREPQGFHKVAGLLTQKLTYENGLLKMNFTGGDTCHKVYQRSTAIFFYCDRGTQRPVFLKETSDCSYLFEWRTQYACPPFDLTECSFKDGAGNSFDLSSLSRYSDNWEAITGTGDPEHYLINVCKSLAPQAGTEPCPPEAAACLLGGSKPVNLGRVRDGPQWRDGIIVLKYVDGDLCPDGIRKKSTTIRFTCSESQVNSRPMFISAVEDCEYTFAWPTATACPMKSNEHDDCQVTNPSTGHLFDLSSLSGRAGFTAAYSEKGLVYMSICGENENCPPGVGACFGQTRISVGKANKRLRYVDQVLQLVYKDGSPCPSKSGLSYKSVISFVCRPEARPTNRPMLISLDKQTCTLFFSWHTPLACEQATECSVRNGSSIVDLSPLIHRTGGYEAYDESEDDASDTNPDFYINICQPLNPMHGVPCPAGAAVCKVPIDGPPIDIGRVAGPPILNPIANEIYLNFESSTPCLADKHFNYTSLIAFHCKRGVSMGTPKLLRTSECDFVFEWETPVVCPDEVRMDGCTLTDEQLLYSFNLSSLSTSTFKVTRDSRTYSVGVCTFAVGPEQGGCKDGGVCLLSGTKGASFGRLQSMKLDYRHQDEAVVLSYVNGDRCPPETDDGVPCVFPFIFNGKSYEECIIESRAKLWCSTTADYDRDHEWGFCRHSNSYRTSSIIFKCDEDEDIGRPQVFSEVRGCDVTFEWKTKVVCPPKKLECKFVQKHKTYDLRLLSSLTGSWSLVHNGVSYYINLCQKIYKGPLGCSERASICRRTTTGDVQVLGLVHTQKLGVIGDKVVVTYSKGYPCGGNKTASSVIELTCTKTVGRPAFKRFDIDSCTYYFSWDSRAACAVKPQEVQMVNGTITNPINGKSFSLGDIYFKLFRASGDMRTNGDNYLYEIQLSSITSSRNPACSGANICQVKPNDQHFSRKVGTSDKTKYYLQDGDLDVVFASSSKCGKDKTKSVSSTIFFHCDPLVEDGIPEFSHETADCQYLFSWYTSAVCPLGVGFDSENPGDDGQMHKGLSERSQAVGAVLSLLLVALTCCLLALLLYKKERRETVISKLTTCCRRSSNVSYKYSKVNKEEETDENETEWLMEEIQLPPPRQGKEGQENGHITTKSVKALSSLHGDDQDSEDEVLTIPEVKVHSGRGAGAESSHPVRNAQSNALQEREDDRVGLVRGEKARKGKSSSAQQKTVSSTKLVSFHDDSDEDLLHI
compound,measurement,setting,value
"CCCCN1C[C@H](O)[C@@H](O)[C@H](O)[C@H]1CO [miglustat, (2R,3R,4R,5S)-1-butyl-2-(hydroxymethyl)piperidine-3,4,5-triol]",effect on unfolded ATB200 protein / active conformation,ATB200,decrease the percentage of unfolded ATB200 protein
same,dose proportionality of plasma miglustat,[1]; 130 mg and 260 mg oral,dose-proportional kinetics
same,half-life,[1]; [14],5.9 h
same,Vd/F,[1]; [14],86.7 L
same,AUC(0-inf),[1]; [14],13100 ng·h/mL
same,AUC(0-t),[1]; [14],12300 ng·h/mL
same,Cmax,[1]; [14],1520 ng/mL
same,Tmax,[1]; [14],3 h
same,half-life,[1]; [15],5.6 h
same,Vd/F,[1]; [15],85.8 L
same,AUC(0-inf),[1]; [15],12600 ng·h/mL
same,AUC(0-t),[1]; [15],11800 ng·h/mL
same,Cmax,[1]; [15],1490 ng/mL
same,Tmax,[1]; [15],3.5 h
same,half-life,[1]; [16],5.3 h
same,Vd/F,[1]; [16],81 L
same,AUC(0-inf),[1]; [16],26000 ng·h/mL
same,AUC(0-t),[1]; [16],25000 ng·h/mL
same,Cmax,[1]; [16],3570 ng/mL
same,Tmax,[1]; [16],3 h
same,half-life,[1]; [17],5.7 h
same,Vd/F,[1]; [17],86.3 L
same,AUC(0-inf),[1]; [17],25900 ng·h/mL
same,AUC(0-t),[1]; [17],24000 ng·h/mL
same,Cmax,[1]; [17],3060 ng/mL
same,Tmax,[1]; [17],3.5 h
same,CL/F,[1]; High (about 260 mg oral) MD,10.3 L/h
same,CL/F,[1]; High (about 260 mg oral) SD,10.6 L/h
same,CL/F,[1]; Low (about 130 mg oral) MD,10.2 L/h
same,CL/F,[1]; Low (about 130 mg oral) SD,10.6 L/h
"ATB200: recombinant human acid α-glucosidase with high M6P content, expressed in CHO cells, described in co-pending application PCT/US2015/053252",depletion of tissue glycogen,"Gaa knockout mice [2]; 5, 10 and 20 mg/kg, two IV bolus every other week, tissues two weeks after last dose",dose-dependent fashion
same,reduction of glycogen levels in skeletal muscles,"Gaa knockout mice [2]; 10 and 20 mg/kg, compared to Lumizyme® 20 mg/kg",significantly better reduction of glycogen levels
same,CIMPR binding compared with Lumizyme®,CIMPR [3]; FIG. 12A,bound to CIMPR significantly better than Lumizyme®
same,Kd,CIMPR [3]; M6P receptor plate binding assays,2 to 4 nM
same,"lysosome proliferation (LAMP1) in heart, diaphragm and soleus",Gaa knockout mice [4],reduction in lysosome proliferation
same,punctate glycogen levels (PAS) in heart and soleus,Gaa knockout mice [4],reduction in punctate glycogen levels
same,volume of distribution (in words),[5]; human,relatively high volume of distribution
same,AUC0-∞,"[5]; human, 5 mg/kg",218 ng·h/mL
same,AUC(0-t),"[5]; human, 5 mg/kg",215 ng·h/mL
same,Cmax,"[5]; human, 5 mg/kg",61 ng/mL
same,Tmax,"[5]; human, 5 mg/kg",3.8 h
same,Vss,"[5]; human, 5 mg/kg",4.62 L
same,αt1/2,"[5]; human, 5 mg/kg",1.1 h
same,βt1/2,"[5]; human, 5 mg/kg",1.9 h
same,AUC0-∞,"[5]; human, 10 mg/kg",584 ng·h/mL
same,AUC(0-t),"[5]; human, 10 mg/kg",578 ng·h/mL
same,Tmax,"[5]; human, 10 mg/kg",4.0 h
same,αt1/2,"[5]; human, 10 mg/kg",1.6 h
same,βt1/2,"[5]; human, 10 mg/kg",1.6 h
same,AUC0-∞,"[5]; human, 20 mg/kg",1512 ng·h/mL
same,AUC(0-t),"[5]; human, 20 mg/kg",1508 ng·h/mL
same,Tmax,"[5]; human, 20 mg/kg",4.0 h
same,αt1/2,"[5]; human, 20 mg/kg",1.5 h
same,βt1/2,"[5]; human, 20 mg/kg",2.1 h
same,CLT,[5]; 5 mg/kg,2.1 L/h
same,CLT,[5]; 10 mg/kg,1.59 L/h
same,CLT,[5]; 20 mg/kg,1.22 L/h
same,intracellular accumulation of dystrophin,"GAA KO mice [6]; 6 months of administration, comparison with Lumizyme®",lowered intracellular accumulation of dystrophin
same,apparent plasma half-life (t1/2),[7],~0.75 h
same,safety and tolerability overall,[8],safe and well tolerated
same,Kuptake,[9],7 to 14 nM
same,internalization into normal and Pompe fibroblast cells,[10]; compared with Lumizyme® rhGAA,internalized to a greater degree than conventional Lumizyme® rhGAA
same,concentration that saturates cellular receptors,[10],about 20 nM
same,relative reduction of glycogen in quadriceps and triceps skeletal muscle,GAA KO mice [11],greater reduction of glycogen than Lumizyme®
Lumizyme®: conventional rhGAA product (alglucosidase alfa) marketed by Genzyme,CIMPR binding compared with ATB200 rhGAA,CIMPR [12],significantly less CIMPR binding
same,rhGAA bound to CIMPR / containing M6P (eluted with M6P),CIMPR [12],22%
same,rhGAA that did not bind to the CIMPR (GAA activity eluted prior to addition of M6P),CIMPR [12],78%
same,functional muscle strength (grip strength and wire hang tests),"GAA KO mice [6]; 12 biweekly administrations, ERT 20 mg/kg, miglustat 10 mg/kg, from baseline",decline
same,uptake efficiency constant (Kuptake),"[10]; extrapolated from uptake curves, FIG. 13C",56 nM
same,concentration that saturates cellular receptors,[10],about 250 nM
Myozyme®: conventional rhGAA product (alglucosidase alfa) marketed by Genzyme,CIMPR binding compared with ATB200 rhGAA,CIMPR [12],significantly less CIMPR binding
same,rhGAA bound to CIMPR / containing M6P (eluted with M6P),CIMPR [12],27%
same,rhGAA that did not bind to the CIMPR (GAA activity eluted prior to addition of M6P),CIMPR [12],73%
"[199-arginine,223-histidine]prepro-α-glucosidase (human) [alglucosidase alfa]",survival in infantile onset Pompe disease,[13]; compared to historical controls,significantly improve survival
same,effect on 6-Minute Walk Test (6MWT) and forced vital capacity (FVC) in late onset Pompe disease,[13]; compared to placebo,"statistically significant, if modest, effect"
same,apparent plasma half-life (t1/2),[7],~1 h
